Test results from patent US8124610B2, “Sodium channel inhibitors” (Icagen Inc., priority 2007, dated 2012).
Like-named read-outs stand apart in the source and are kept apart here.

Experiments:
hSCN9A = biological target: T1, hSCN9A (Homo sapiens, UniProt Q15858); assay: Whole-cell patch-clamp electrophysiology (conventional or PatchXpress), HEK cells expressing hSCN9A, estimated IC-50; type: cell-based; conditions: read-out: SCN9A EIC-50
T1 construct: expressed in transfected cells
Procedure, shortened: (§1)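 Stably transfected HEK cells recorded by whole-cell voltage clamp (manual or PatchXpress) at 22–24 °C in pH 7.4 HEPES-buffered extracellular solution. Cells held at the empirically determined inactivation V1/2 after an 8 s prepulse, then stepped to 0 mV for 20 ms; % inhibition from current amplitude before vs after compound.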

hSCN3A = biological target: T2, hSCN3A (Homo sapiens, UniProt Q9NY46); assay: Whole-cell patch-clamp electrophysiology (conventional or PatchXpress), HEK cells expressing hSCN3A, estimated IC-50; type: cell-based; conditions: read-out: SCN3A EIC-50
T2 construct: expressed in transfected cells
Procedure, shortened: as §1

[1] = estimated IC-50, HEK cells expressing hSCN9A, class symbols or bounds
[2] = estimated IC-50, HEK cells expressing hSCN3A, class symbols or bounds
[3] = Table V, estimated IC-50 from single point electrophysiology, cells clamped at V1/2
[4] = commercial compounds (second Table VI), estimated IC-50 from single point electrophysiology

T2 sequence (Q9NY46 whole entry): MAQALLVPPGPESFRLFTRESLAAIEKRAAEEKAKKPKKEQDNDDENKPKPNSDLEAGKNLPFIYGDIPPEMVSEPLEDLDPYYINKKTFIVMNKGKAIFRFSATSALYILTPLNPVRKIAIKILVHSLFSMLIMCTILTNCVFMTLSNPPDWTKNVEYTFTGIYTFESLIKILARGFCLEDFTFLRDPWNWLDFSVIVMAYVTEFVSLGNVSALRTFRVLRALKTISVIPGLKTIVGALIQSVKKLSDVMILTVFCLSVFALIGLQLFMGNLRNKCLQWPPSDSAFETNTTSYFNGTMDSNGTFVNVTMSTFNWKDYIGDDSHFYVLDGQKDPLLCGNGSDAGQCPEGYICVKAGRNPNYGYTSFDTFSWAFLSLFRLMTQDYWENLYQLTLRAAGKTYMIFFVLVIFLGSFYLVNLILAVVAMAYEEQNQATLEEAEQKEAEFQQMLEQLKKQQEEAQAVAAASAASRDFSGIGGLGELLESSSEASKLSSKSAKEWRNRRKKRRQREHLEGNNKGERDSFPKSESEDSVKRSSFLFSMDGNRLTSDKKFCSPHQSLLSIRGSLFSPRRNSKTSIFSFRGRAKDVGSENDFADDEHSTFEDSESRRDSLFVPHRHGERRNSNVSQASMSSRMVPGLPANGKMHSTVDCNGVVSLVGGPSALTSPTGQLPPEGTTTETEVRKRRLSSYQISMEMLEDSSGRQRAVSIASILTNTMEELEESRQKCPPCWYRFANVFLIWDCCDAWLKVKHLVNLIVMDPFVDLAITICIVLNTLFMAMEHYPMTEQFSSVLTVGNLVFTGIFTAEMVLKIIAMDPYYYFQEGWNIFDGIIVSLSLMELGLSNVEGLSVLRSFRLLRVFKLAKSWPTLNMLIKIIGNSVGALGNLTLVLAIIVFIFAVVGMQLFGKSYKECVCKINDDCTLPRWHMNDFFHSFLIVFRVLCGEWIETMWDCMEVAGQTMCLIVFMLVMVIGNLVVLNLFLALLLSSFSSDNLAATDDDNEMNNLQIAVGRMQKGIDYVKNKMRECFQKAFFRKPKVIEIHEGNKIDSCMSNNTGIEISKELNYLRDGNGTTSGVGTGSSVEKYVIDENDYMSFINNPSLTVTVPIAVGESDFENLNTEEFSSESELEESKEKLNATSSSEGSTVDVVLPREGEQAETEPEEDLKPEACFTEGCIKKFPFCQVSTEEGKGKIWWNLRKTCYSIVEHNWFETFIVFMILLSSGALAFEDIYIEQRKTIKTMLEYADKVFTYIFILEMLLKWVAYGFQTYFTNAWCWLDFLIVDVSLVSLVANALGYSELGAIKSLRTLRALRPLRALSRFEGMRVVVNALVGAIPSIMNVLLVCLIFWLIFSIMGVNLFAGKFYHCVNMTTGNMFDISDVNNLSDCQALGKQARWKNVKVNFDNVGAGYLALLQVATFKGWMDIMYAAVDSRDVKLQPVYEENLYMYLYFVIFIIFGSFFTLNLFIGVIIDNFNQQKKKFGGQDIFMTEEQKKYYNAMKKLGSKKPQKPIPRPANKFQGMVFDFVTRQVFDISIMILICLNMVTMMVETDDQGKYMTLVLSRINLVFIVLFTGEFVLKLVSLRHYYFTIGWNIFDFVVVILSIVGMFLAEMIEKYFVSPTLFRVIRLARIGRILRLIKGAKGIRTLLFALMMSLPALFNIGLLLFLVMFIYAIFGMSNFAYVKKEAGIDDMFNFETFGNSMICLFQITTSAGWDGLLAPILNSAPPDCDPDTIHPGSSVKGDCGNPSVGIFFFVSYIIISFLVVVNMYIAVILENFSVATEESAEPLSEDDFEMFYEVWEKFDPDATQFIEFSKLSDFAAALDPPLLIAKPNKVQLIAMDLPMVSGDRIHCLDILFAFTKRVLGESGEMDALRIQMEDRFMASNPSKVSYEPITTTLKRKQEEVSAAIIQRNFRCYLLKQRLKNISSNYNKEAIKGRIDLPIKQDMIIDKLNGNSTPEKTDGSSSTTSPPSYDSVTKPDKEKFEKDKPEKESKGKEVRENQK
T1 sequence (Q15858 whole entry): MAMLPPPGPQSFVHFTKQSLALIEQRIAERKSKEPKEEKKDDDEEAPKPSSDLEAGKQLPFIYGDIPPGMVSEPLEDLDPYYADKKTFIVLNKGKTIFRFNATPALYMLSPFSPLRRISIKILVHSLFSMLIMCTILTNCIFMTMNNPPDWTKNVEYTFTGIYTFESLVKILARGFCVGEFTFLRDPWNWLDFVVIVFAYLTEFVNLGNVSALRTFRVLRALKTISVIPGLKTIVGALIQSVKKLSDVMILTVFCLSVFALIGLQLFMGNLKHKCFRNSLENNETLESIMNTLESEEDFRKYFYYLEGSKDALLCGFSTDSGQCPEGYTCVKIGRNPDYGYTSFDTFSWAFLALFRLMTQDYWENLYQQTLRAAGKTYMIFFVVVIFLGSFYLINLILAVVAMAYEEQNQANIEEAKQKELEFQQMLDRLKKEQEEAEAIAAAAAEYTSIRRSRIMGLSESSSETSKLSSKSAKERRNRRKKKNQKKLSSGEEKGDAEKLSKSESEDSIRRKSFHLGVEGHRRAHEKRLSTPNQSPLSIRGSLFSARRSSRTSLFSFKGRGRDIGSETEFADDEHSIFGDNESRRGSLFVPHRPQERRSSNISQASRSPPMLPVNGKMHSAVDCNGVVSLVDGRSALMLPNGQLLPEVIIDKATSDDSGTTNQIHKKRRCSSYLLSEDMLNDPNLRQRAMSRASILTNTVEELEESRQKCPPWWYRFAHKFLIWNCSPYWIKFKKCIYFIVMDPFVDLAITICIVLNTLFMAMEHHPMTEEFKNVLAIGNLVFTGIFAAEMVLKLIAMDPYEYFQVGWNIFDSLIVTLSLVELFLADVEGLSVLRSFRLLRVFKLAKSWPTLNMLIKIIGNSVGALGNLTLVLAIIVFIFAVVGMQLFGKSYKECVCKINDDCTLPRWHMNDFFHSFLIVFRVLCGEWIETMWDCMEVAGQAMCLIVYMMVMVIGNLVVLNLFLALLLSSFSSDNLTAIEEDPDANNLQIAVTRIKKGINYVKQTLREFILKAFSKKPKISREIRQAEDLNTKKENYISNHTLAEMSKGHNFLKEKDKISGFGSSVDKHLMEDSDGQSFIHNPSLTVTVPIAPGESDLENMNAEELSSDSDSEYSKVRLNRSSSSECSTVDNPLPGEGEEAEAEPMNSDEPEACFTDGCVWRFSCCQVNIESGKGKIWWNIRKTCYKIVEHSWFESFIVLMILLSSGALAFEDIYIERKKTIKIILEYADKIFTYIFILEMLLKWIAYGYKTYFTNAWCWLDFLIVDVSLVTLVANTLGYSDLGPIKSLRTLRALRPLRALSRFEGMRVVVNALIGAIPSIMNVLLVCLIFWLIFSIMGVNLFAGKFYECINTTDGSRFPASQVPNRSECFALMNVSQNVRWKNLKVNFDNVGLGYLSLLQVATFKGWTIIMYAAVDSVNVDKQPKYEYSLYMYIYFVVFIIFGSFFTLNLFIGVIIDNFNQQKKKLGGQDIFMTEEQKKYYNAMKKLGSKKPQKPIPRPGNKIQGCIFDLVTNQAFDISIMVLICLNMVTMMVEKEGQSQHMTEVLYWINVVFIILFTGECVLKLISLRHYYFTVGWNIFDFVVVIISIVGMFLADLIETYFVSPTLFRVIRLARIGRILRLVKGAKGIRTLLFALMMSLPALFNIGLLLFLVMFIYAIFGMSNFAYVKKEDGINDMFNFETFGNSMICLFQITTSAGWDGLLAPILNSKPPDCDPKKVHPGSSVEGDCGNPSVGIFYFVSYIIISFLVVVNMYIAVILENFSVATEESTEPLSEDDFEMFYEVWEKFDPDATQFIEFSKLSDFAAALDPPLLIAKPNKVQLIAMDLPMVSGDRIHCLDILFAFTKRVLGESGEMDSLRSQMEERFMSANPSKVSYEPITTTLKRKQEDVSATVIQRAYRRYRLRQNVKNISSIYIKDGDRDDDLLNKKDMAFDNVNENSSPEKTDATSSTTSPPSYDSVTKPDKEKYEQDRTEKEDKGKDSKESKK

Row | SMILES | IC50 (hSCN9A; [1]) | IC50 (hSCN3A; [2]) | further results
1 | Cn1nc(C2(c3ccc(Cl)cc3)CC2)cc1Nc1ccc(S(=O)(=O)Nc2nccs2)cc1 [Compound 129, 4-(3-(1-(4-chlorophenyl)cyclopropyl)-1-methyl-1H-pyrazol-5-ylamino)-N-(thiazol-2-yl)benzenesulfonamide] | < 2 µM | < 2 µM | 
2 | Cc1cc(Nc2ccc(S(=O)(=O)Nc3nccs3)c(F)c2)n(-c2cccc(Cl)c2)n1 [Compound 152, 4-(1-(3-chlorophenyl)-3-methyl-1H-pyrazol-5-ylamino)-2-fluoro-N-(thiazol-2-yl)benzenesulfonamide] | < 2 µM | < 2 µM | 
3 | Cc1cc(Nc2ccc(S(=O)(=O)Nc3nccs3)c(Cl)c2)n(-c2ccccc2)n1 [Compound 161, 2-chloro-4-(3-methyl-1-phenyl-1H-pyrazol-5-ylamino)-N-(thiazol-2-yl)benzenesulfonamide] | < 2 µM | < 2 µM | 
4 | O=S(=O)(Nc1nccs1)c1ccc(Nc2nc3cc(Cl)ccc3[nH]2)cc1 [Compound 99, 4-(5-chloro-1H-benzo[d]imidazol-2-ylamino)-N-(thiazol-2-yl)benzenesulfonamide] | 2 to 10 µM | < 2 µM | 
5 | O=S(=O)(Nc1nccs1)c1ccc(Nc2ccn(Cc3ccc(Cl)cc3)n2)cc1F [Compound 31, 4-(1-(4-chlorobenzyl)-1H-pyrazol-3-ylamino)-2-fluoro-N-(thiazol-2-yl)benzenesulfonamide] |  |  | IC50 (hSCN9A; [3]): < 2 µM; IC50 (hSCN3A; [3]): < 2 µM
6 | COc1ccc(C(=O)Cn2cc3cc(S(=O)(=O)Nc4nccs4)ccc3n2)c(OC)c1 [Compound 277, 2-(2-(2,4-dimethoxyphenyl)-2-oxoethyl)-N-(thiazol-2-yl)-2H-indazole-5-sulfonamide] | < 2 µM | > 1 µM | 
7 | Nc1nc(Nc2ccc(S(=O)(=O)Nc3nccs3)cc2)nn1Cc1ccc(Cl)cc1 [Compound 24, 4-(5-amino-1-(4-chlorobenzyl)-1H-1,2,4-triazol-3-ylamino)-N-(thiazol-2-yl)benzenesulfonamide] |  |  | IC50 (hSCN9A; [3]): > 10 µM; IC50 (hSCN3A; [3]): 2 to 10 µM
8 | O=S(=O)(Nc1nccs1)c1ccc(Nc2nc(CNCCOc3ccccc3)cs2)cc1 [Compound 57, 4-(4-((2-phenoxyethylamino)methyl)thiazol-2-ylamino)-N-(thiazol-2-yl)benzenesulfonamide] | > 1 µM | 2 to 10 µM | 
9 | O=S(=O)(Nc1nccs1)c1ccc(Nc2nc(-c3ccc(C(F)(F)F)cc3)cs2)cc1 [Compound 84, N-(thiazol-2-yl)-4-(4-(4-(trifluoromethyl)phenyl)thiazol-2-ylamino)benzenesulfonamide] | < 2 µM | < 2 µM | 
10 | O=S(=O)(Nc1nccs1)c1ccc(Nc2nc(Cc3ccc(Cl)cc3)cs2)cc1F [Compound 1, 4-[4-(4-Chloro-benzyl)-thiazol-2-ylamino]-2-fluoro-N-thiazol-2-yl-benzenesulfonamide] |  |  | IC50 (hSCN9A; [3]): < 2 µM; IC50 (hSCN3A; [3]): < 2 µM
11 | CCOC(=O)C1(C)C=C(Nc2ccc(S(=O)(=O)Nc3nccs3)cc2)C(=O)N1c1ccccc1 (stereo not drawn) [Compound 38, ethyl 2-methyl-5-oxo-1-phenyl-4-(4-(N-thiazol-2-ylsulfamoyl)phenylamino)-2,5-dihydro-1H-pyrrole-2-carboxylate, reference compound] |  |  | IC50 (hSCN9A; [4]): > 3 µM; IC50 (hSCN3A; [4]): > 1 µM
12 | Cc1cc(Nc2ccc(S(=O)(=O)Nc3nccs3)c(F)c2)n(-c2c(C)cccc2C)n1 [Compound 191, 4-(1-(2,6-dimethylphenyl)-3-methyl-1H-pyrazol-5-ylamino)-2-fluoro-N-(thiazol-2-yl)benzenesulfonamide] | < 2 µM | < 2 µM | 
13 | O=S(=O)(Nc1nccs1)c1ccc(Nc2nnc(-c3ccccc3)c3ccccc23)cc1 [Compound 42, 4-(4-phenylphthalazin-1-ylamino)-N-(thiazol-2-yl)benzenesulfonamide, reference compound] |  |  | IC50 (hSCN9A; [4]): > 3 µM; IC50 (hSCN3A; [4]): 2.03 µM
14 | O=S(=O)(Nc1nccs1)c1ccc(Nc2cnn(Cc3ccc(Cl)cc3)c2)cc1F [Compound 33, 4-(1-(4-chlorobenzyl)-1H-pyrazol-4-ylamino)-2-fluoro-N-(thiazol-2-yl)benzenesulfonamide] |  |  | IC50 (hSCN9A; [3]): < 2 µM; IC50 (hSCN3A; [3]): < 2 µM
15 | CC(C)(C)n1nc(Cc2ccc(Cl)cc2)cc1Nc1ccc(S(=O)(=O)Nc2nncs2)cc1 [Compound 111, 4-(1-tert-butyl-3-(4-chlorobenzyl)-1H-pyrazol-5-ylamino)-N-(1,3,4-thiadiazol-2-yl)benzenesulfonamide] | 2 to 10 µM | < 2 µM | 
16 | O=S(=O)(Nc1nccs1)c1ccc(Nc2ncn(Cc3cccc(Cl)c3)n2)c(F)c1 [Compound 201, 4-(1-(3-chlorobenzyl)-1H-1,2,4-triazol-3-ylamino)-3-fluoro-N-(thiazol-2-yl)benzenesulfonamide] | < 2 µM | 2 to 10 µM | 
17 | CC(C)(C)c1ccc(OCc2csc(Nc3ccc(S(=O)(=O)Nc4nccs4)cc3)n2)cc1 [Compound 62, 4-(4-((4-tert-butylphenoxy)methyl)thiazol-2-ylamino)-N-(thiazol-2-yl)benzenesulfonamide] | 2 to 10 µM | < 2 µM | 

Row | SMILES | IC50 (hSCN9A; [1]) | IC50 (hSCN3A; [2]) | further results
18 | O=S(=O)(Nc1nccs1)c1ccc(Nc2cc(CC(F)(F)F)nn2-c2ccccc2F)cc1F [Compound 204, 2-fluoro-4-(1-(2-fluorophenyl)-3-(2,2,2-trifluoroethyl)-1H-pyrazol-5-ylamino)-N-(thiazol-2-yl)benzenesulfonamide] | < 2 µM | < 2 µM | 
19 | CC(C)(C)c1cc(Nc2ccc(S(=O)(=O)Nc3nccs3)cc2)no1 [Compound 18] |  |  | IC50 (hSCN9A; [3]): > 10 µM; IC50 (hSCN3A; [3]): < 2 µM
20 | CCN(CC)Cc1csc(Nc2ccc(S(=O)(=O)Nc3nccs3)cc2)n1 [Compound 68, 4-(4-((diethylamino)methyl)thiazol-2-ylamino)-N-(thiazol-2-yl)benzenesulfonamide] | 2 to 10 µM | > 1 µM | 
21 | CC(C)(C)c1csc(Nc2ccc(S(=O)(=O)Nc3nccs3)c(F)c2)n1 [Compound 7, 4-(4-Tert-butyl-thiazol-2-ylamino)-2-fluoro-N-thiazol-2-yl-benzenesulfonamide] |  |  | IC50 (hSCN9A; [3]): 2 to 10 µM; IC50 (hSCN3A; [3]): < 2 µM
22 | Cc1cc(S(=O)(=O)Nc2nccs2)c(F)cc1Nc1ccn(Cc2ccc(Cl)cc2)n1 [Compound 269, 4-(1-(4-chlorobenzyl)-1H-pyrazol-3-ylamino)-2-fluoro-5-methyl-N-(thiazol-2-yl)benzenesulfonamide] | < 2 µM | < 2 µM | 
23 | O=S(=O)(Nc1nccs1)c1ccc(Nc2ccnn2-c2ccccc2)cc1 [Compound 151, 4-(1-phenyl-1H-pyrazol-5-ylamino)-N-(thiazol-2-yl)benzenesulfonamide] | 2 to 10 µM | < 2 µM | 
24 | O=S(=O)(Nc1nccs1)c1cc(F)c(Nc2ccn(Cc3ccc(Cl)cc3)n2)cc1F [Compound 206, 4-(1-(4-chlorobenzyl)-1H-pyrazol-3-ylamino)-2,5-difluoro-N-(thiazol-2-yl)benzenesulfonamide] | < 2 µM | < 2 µM | 
25 | COC(=O)c1sc(Nc2ccc(S(=O)(=O)Nc3nccs3)cc2)nc1C [Compound 77, methyl 4-methyl-2-(4-(N-thiazol-2-ylsulfamoyl)phenylamino)thiazole-5-carboxylate] | > 3 µM | < 2 µM | 
26 | O=S(=O)(Nc1nccs1)c1ccc(Nc2nc(CNCc3ccc(C(F)(F)F)cc3)cs2)cc1 [Compound 71, N-(thiazol-2-yl)-4-(4-((4-(trifluoromethyl)benzylamino)methyl)thiazol-2-ylamino)benzenesulfonamide] | 2 to 10 µM | < 2 µM | 
27 | CN(CCc1ccncc1)Cc1csc(Nc2ccc(S(=O)(=O)Nc3nccs3)cc2)n1 [Compound 75, 4-(4-((methyl(2-(pyridin-4-yl)ethyl)amino)methyl)thiazol-2-ylamino)-N-(thiazol-2-yl)benzenesulfonamide] | > 1 µM | < 2 µM | 
28 | Cc1cc(Nc2ccc(S(=O)(=O)Nc3nccs3)c(F)c2)n(-c2ccccc2)n1 [Compound 30, 2-fluoro-4-(3-methyl-1-phenyl-1H-pyrazol-5-ylamino)-N-(thiazol-2-yl)benzenesulfonamide] |  |  | IC50 (hSCN9A; [3]): < 2 µM; IC50 (hSCN3A; [3]): < 2 µM
29 | O=C(Cn1ncc2cc(S(=O)(=O)Nc3nccs3)ccc21)c1ccc(F)cc1 [Compound 280, 1-(2-(4-fluorophenyl)-2-oxoethyl)-N-(thiazol-2-yl)-1H-indazole-5-sulfonamide] | 2 to 10 µM | 2 to 10 µM | 
30 | Cc1nc(Nc2ccc(S(=O)(=O)Nc3nccs3)c(F)c2)sc1C(C)(C)C [Compound 13, 4-(5-tert-butyl-4-methylthiazol-2-ylamino)-2-fluoro-N-(thiazol-2-yl)benzenesulfonamide] |  |  | IC50 (hSCN9A; [3]): < 2 µM; IC50 (hSCN3A; [3]): < 2 µM
31 | O=S(=O)(Nc1nccs1)c1ccc(Nc2nc(Cc3ccc(Cl)cc3)cs2)cc1 [Compound 91, 4-(4-(4-chlorobenzyl)thiazol-2-ylamino)-N-(thiazol-2-yl)benzenesulfonamide] | < 2 µM | < 2 µM | 
32 | CC(C)(C)c1cc(Nc2ccc(S(=O)(=O)Nc3nccs3)cc2)n(C(C)(C)C)n1 [Compound 22, 4-(1,3-di-tert-butyl-1H-pyrazol-5-ylamino)-N-(thiazol-2-yl)benzenesulfonamide] |  |  | IC50 (hSCN9A; [3]): 2 to 10 µM; IC50 (hSCN3A; [3]): 2 to 10 µM
33 | Cc1ccc(-n2nc(C)cc2Nc2ccc(S(=O)(=O)Nc3nccs3)c(F)c2)cc1 [Compound 147, 2-fluoro-4-(3-methyl-1-p-tolyl-1H-pyrazol-5-ylamino)-N-(thiazol-2-yl)benzenesulfonamide] | < 2 µM | < 2 µM | 
